Results reported in US11965039B2, “Compstatin analogues and their medical uses” (priority 2018, dated 2024).
pIC50: −log10 of the molar value.

System: classical complement pathway
Assay: In vitro haemolysis assay (inhibition of classical complement pathway)
Assay type: cell-based, human
Conditions: human serum, sensitized sheep red blood cells; Table 3, given as upper bounds; read-out: IC50, inhibition of hemolysis
Procedure: The in vitro effect of the compounds of the present invention was assessed by measuring their inhibitory effect of the classical complement pathway in a haemolysis assay. Briefly, compounds of the present invention and reference compounds were dissolved in DMSO and diluted in Tris/Casein Assay Buffer (10 mM Tris, 145 mM NaCl, 0.5 mM MgCl2, 0.15 mM CaCl2), and 0.1% W/V Casein, adjusted to pH 7.4) as 9-point serial dilutions in a 96 well plate. Sensitized sheep red blood cells (RBC) coated with rabbit anti-sheep erythrocyte antiserum (Complement Technology, Inc., TX, USA) were washed in Tris/Casein Assay Buffer. […] from each well of diluted compound was added to a 96-well plate containing 50 μL diluted human serum (Complement Technology, Inc., TX, USA) and incubated for 15 minutes at room temperature. The serum dilution factor was optimized for every serum batch to obtain 70-90% of maximal haemolysis using the protocol. Then 50 μL sensitized sheep red blood cells were added to all wells (10^7 per well). After 30 minutes of incubation at 37 QC with gentle agitation, the reaction was stopped by addition of 50 μL Tris STOP Buffer per well (10 mM EDTA, 10 mM Tris, 145 mM NaCl adjusted to pH 7.4). The RBCs were then removed by centrifugation and the resulting supernatant measured for hemolysis by absorbance at 405 nm. […]

Substance: Ac-IC(1)IWQDWGEHRC(1)TEG-K((15-carboxy-pentadecanoyl)-[(Piperazine-1-yl)-acetyl][Peg3][Peg3])-NH2 [Compound 95]
- pIC50: > 6.30
